≈ marks a conversion by molar mass, not a printed value. Like-named read-outs stand apart in the source and are kept apart here.
Columns and labels:
[1] = Storage stability of master stock solution; assay type: physicochemical; settings: 10 mg/ml in 100% DMSO, foil-covered glass bottles, −20° C.; results not shown
Protocol: 10 mg/ml stock solution of TSB007 was prepared in 100% DMSO. Master stock solutions of TSB007 (10 mg/ml) were made by dissolving 20 mg dehydrated compound in 2 ml 100% DMSO. They were stored in foil-covered glass bottles at −20° C. Master stocks stored in this way retained full antimicrobial activity for a minimum period of 6 weeks (results not shown).

[2] = system: Moraxella catarrhalis ATCC 25238; test: Disk diffusion; assay type: cell-based; settings: 10 mg/ml, 20 μl, incubated in 5% CO2
[3] = system: Stenotrophomonas maltophilia M2495; test: Disk diffusion; assay type: cell-based; settings: 10 mg/ml, 20 μl, strain M2495
[4] = system: Enterococcus faecium ATCC 19434; test: Disk diffusion; assay type: cell-based; settings: 10 mg/ml, 20 μl
[5] = system: S. aureus ATCC 33592 (MRSA); test: MIC and MBC by broth microdilution; assay type: cell-based; settings: Staphylococcus aureus, CA-MHB, two independent replicates
Protocol: (§1) The method used was based on CLSI protocols for broth microdilution testing of these species. As recommended by CLSI, inocula were prepared by direct colony suspension, and the media used were cation-adjusted Mueller Hinton broth (CA-MHB) for Staphylococcus spp. and CA-MHB containing 5% lysed horse blood (CA-MHB+LHB) for Streptococcus spp. Briefly, 24 h blood agar plate (BA) cultures of Staphylococcus aureus strains NCTC 6571, ATCC 29213, ATCC 33592 (MRSA) and NCTC 10442 (MRSA), Staphylococcus epidermidis ATCC 29971, Staphylococcus xylosus ATCC 29971, Streptococcus pneumoniae strains ATCC 49619 and ATCC 6305, and Streptococcus pyogenes strains NCTC 8191 and NCTC 8302 were used to prepare 0.5 McFarland suspensions in saline. Two 640 μg/ml working stocks of TSB007 were prepared from a fresh master stock, one in CA-MHB for testing against the Staphylococcus spp. and the other in CA-MHB+LHB for testing against Streptococcus spp. The working stocks were further diluted 1/10 in these broths for adding to microtitre trays to test MICs of 32, 16, 8, 4, 2, 1, 0.5, 0.25, 0.125 and 0.06 μg/ml.
(§2) The wells of two 96-well microtitre trays (one for Staphylococcus spp. and one for Streptococcus spp.) were filled with 100 μl of the appropriate broth, except for the first column. The last column, a sterility control containing no TSB007 or inoculum, was filled with an additional 100 μl broth. Then 100 μl of the 64 μg/ml TSB007 solution was added to the first two columns, the contents of column 2 was mixed, then 100 μl of this was used in two-fold serial dilutions along the rest of the tray except the last two columns. The final 100 μl was discarded. […] Finally, to the first 11 wells of one row per strain, 100 μl of a 10^−2 dilution (in the appropriate broth) of the 0.5 McFarland suspension was added. The microtitre trays were then incubated at 35° C. for 24 h before the MICs were read visually. Wells were further subcultured (10 μl drop onto BA then incubated at 35° C. for 24 h) and colonies subsequently counted to determine minimum bactericidal concentrations (MBCs). The concentration of the initial inoculum was confirmed on BA by counting colonies from 2×10 μl spots of 10^−5 dilutions of the 0.5 McFarland suspensions. Testing was performed on two separate occasions.

[6] = system: S. aureus NCTC 10442 (MRSA); test: MIC and MBC by broth microdilution; assay type: cell-based; settings: Staphylococcus aureus, CA-MHB, two independent replicates
Protocol: as §1, §2

S. aureus NCTC 6571 [7] = test: MIC and MBC by broth microdilution; assay type: cell-based; settings: Staphylococcus aureus, NCTC6571, CA-MHB, two independent replicates
Protocol: as §1, §2

S. pneumoniae ATCC 49619 = test: MIC and MBC by broth microdilution; assay type: cell-based; settings: Streptococcus pneumoniae, ATCC49619, CA-MHB+LHB, two independent replicates
Protocol: as §1, §2

S. pyogenes NCTC 8191 = test: MIC and MBC by broth microdilution; assay type: cell-based; settings: Streptococcus pyogenes, NCTC8191, CA-MHB+LHB, two independent replicates
Protocol: as §1, §2

S. pyogenes NCTC 8302 = test: MIC and MBC by broth microdilution; assay type: cell-based; settings: Streptococcus pyogenes, NCTC8302, CA-MHB+LHB, two independent replicates
Protocol: as §1, §2

S. xylosus ATCC 29971 = test: MIC and MBC by broth microdilution; assay type: cell-based; settings: Staphylococcus xylosus, ATCC29971, CA-MHB, two independent replicates
Protocol: as §1, §2

E. coli NCTC 10418 = test: Broth microdilution MIC and MBC, expanded testing range; assay type: cell-based; settings: Escherichia coli, NCTC10418; MHB, growth-method inoculum, range 1024 to 0.5 μg/ml
Protocol: as §1, §2
(§3) The method described above, with some modifications, was used to determine the MIC and MBC for S. aureus NCTC 6571 and E. coli NCTC 10418. Concentrations of the compound were previously too low to determine the MBC of this S. aureus strain. Modifications were the use of Mueller-Hinton broth (MHB) instead of CA-MHB, the preparation of bacterial inoculum by the growth method instead of direct colony suspension, and the use of more concentrated working stocks and test concentrations of TSB007. […]

S. aureus NCTC 6571 [8] = test: as above; assay type: cell-based; settings: Staphylococcus aureus, NCTC6571; MHB, growth-method inoculum, range 1024 to 0.5 μg/ml
Protocol: as §1, §2, §3

[9] = system: S. aureus and S. epidermidis; test: MIC by broth microdilution; assay type: cell-based; settings: CA-MHB, read-out: lowest MICs
Protocol: as §1, with “The working stocks were further diluted 1/10 in these broths for adding to microtitre trays to test MICs of 32, 16, 8, 4, 2, 1, 0.5, 0.25, 0.125 and 0.06 μg/ml.” left out
The wells of two 96-well microtitre trays (one for Staphylococcus spp. and one for Streptococcus spp.) were filled with 100 μl of the appropriate broth, except for the first column. […] The microtitre trays were then incubated at 35° C. for 24 h before the MICs were read visually. Wells were further subcultured (10 μl drop onto BA then incubated at 35° C. for 24 h) and colonies subsequently counted to determine minimum bactericidal concentrations (MBCs). […]

[10] = system: Micrococcus luteus ATCC 10240; test: Disk diffusion; settings: 10 mg/ml, 20 μl
[11] = system: Staphylococcus aureus NCTC 6571/ATCC 9144; test: Disk diffusion; settings: for zone of inhibition at 10000 µg/mL: Staphylococcus aureus

**Q.** For O=C(O)c1ccc(/C=C/c2cc(/C=C/c3ccc(C(=O)O)cc3)cc(/C=C/c3ccc(C(=O)O)cc3)c2)cc1 [TSB007], which “minimum period for which master stocks retained full antimicrobial activity” value [1] is on record?
**A.** ≥ 6 weeks

**Q.** What about the “Zone diameters, 24 h TSB007” value ([2]; 24 h) of the same molecule?
**A.** 25 trim

**Q.** What about the “Zone diameters, 48 h TSB007” value ([2]; 48 h) of the same molecule?
**A.** 25 trim

**Q.** What about the “Zone diameters, Repeat Results” value [3] of the same molecule?
**A.** 9 trim

**Q.** And the “Zone diameters, 24 h TSB007” value ([4]; 24 h)?
**A.** 11 trim

**Q.** What about the “Zone diameters, 48 h TSB007” value ([4]; 48 h) of the same molecule?
**A.** 10 trim

**Q.** And the MIC ([5]; 35° C., 24 h)?
**A.** 2 to 4 mg/L (≈ 3.87 to 7.74 µM)

**Q.** What about the MBC [5] of the same molecule?
**A.** > 32 mg/L

**Q.** What about the MIC ([6]; 35° C., 24 h) of the same molecule?
**A.** 2 to 4 mg/L (≈ 3.87 to 7.74 µM)

**Q.** And the MBC [6]?
**A.** > 32 mg/L

**Q.** And the MIC (S. aureus NCTC 6571 [7]; 35° C., 24 h)?
**A.** 2 to 4 mg/L (≈ 3.87 to 7.74 µM)

**Q.** And the MBC (S. aureus NCTC 6571 [7])?
**A.** > 32 mg/L

**Q.** What about the MIC (S. pneumoniae ATCC 49619; 35° C., 24 h) of the same molecule?
**A.** 32 mg/L (≈ 61.9 µM)

**Q.** What about the MBC (S. pneumoniae ATCC 49619) of the same molecule?
**A.** > 32 mg/L

**Q.** And the MIC (S. pyogenes NCTC 8191; 35° C., 24 h)?
**A.** > 32 mg/L

**Q.** And the MBC (S. pyogenes NCTC 8191)?
**A.** > 32 mg/L

**Q.** What about the MIC (S. pyogenes NCTC 8302; 35° C., 24 h) of the same molecule?
**A.** > 32 mg/L

**Q.** What about the MBC (S. pyogenes NCTC 8302) of the same molecule?
**A.** > 32 mg/L

**Q.** What about the MIC (S. xylosus ATCC 29971; 35° C., 24 h) of the same molecule?
**A.** 8 to 16 mg/L (≈ 15.5 to 31 µM)

**Q.** And the MBC (S. xylosus ATCC 29971)?
**A.** 8 to 16 mg/L (≈ 15.5 to 31 µM)

**Q.** And the MBC (E. coli NCTC 10418)?
**A.** > 1020 mg/L

**Q.** And the MIC (E. coli NCTC 10418)?
**A.** 512 mg/L (≈ 991 µM)

**Q.** And the MBC (S. aureus NCTC 6571 [8])?
**A.** 128 to 256 mg/L (≈ 248 to 496 µM)

**Q.** What about the MIC (S. aureus NCTC 6571 [8]) of the same molecule?
**A.** 2 mg/L (≈ 3.87 µM)

**Q.** What about the MIC [9] of the same molecule?
**A.** 4 mg/L (≈ 7.74 µM)

**Q.** What about the “Zone diameters, 24 h TSB007” value ([10]; 24 h) of the same molecule?
**A.** 26 trim

**Q.** And the “Zone diameters, 48 h TSB007” value ([10]; 48 h)?
**A.** 26 trim

**Q.** And the “Zone diameters, Repeat Results” value ([10]; repeat)?
**A.** 32 trim

**Q.** What about the “Zone diameters, 24 h TSB007” value ([11]; 10 mg/ml, 20 μl, 24 h) of the same molecule?
**A.** 20 trim

**Q.** And the “Zone diameters, 48 h TSB007” value ([11]; 10 mg/ml, 20 μl, 48 h)?
**A.** 9 trim

**Q.** What about the “Zone diameters, 48 h O2” value ([11]; 10 mg/ml, 20 μl, 48 h, incubated aerobically) of the same molecule?
**A.** No zone

**Q.** What about the “Zone diameters, Repeat Results” value ([11]; 10 mg/ml, 20 μl, repeat) of the same molecule?
**A.** 21 trim

**Q.** What about the zone of inhibition at 10000 µg/mL ([11]; ATCC9144|NCTC6571, 24 h, read-out: Zone diameters, 24 h AnO2) of the same molecule?
**A.** 18 mm

**Q.** And the zone of inhibition at 10000 µg/mL ([11]; ATCC9144|NCTC6571, 24 h, read-out: Zone diameters, 24 h O2)?
**A.** 14 mm

**Q.** And the zone of inhibition at 10000 µg/mL ([11]; ATCC9144|NCTC6571, 48 h, read-out: Zone diameters, 48 h AnO2)?
**A.** 18 mm

Reference: US9738591B2, “Antimicrobial compounds” (priority 2009, dated 2017)
